As a reminder, the IC50 is the point on the concentration scale where inhibition reaches its midpoint. A lower IC50 goes with inhibition by little substance.

The source of these data is patent US8211929B2, “Pyrimidine derivatives as kinase modulators and method of use” (Exelixis, Inc., priority 2004, dated 2012).

Where two headings read alike, the source gives them in different places.

For one experiment, the target named is T1, IGF 3P (Homo sapiens, UniProt P08069).
T1 construct: human IGF1R kinase domain residues M954-C1367; made in house; host or cells: baculovirus expression (insect cells)
T1 sequence (P08069 954-1367): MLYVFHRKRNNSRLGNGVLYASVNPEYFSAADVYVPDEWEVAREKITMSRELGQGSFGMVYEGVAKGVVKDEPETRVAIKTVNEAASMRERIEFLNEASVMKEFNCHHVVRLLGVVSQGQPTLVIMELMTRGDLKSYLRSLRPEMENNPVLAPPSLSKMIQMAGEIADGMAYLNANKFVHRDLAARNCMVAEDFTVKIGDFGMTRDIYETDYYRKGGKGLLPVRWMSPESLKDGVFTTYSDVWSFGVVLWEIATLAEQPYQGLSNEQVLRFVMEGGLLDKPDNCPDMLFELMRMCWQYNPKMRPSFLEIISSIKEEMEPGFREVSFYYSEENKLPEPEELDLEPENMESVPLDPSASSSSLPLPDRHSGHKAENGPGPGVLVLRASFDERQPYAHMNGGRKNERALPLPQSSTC
As to the kind of experiment: IGF1R kinase assay (LCCA), IGF 3P. It counts as biochemical. A digest of the protocol:
(§1)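 Baculovirus-expressed human IGF1R kinase domain (M954-C1367), 4 nM, with 3 μM ATP and 4 μM poly EY in Tris-HCl pH 7.5 buffer containing MgCl2 and MnCl2, 2 h at ambient temperature. Remaining ATP read by luciferase chemiluminescence; IC50 from 10-point dose-response fitted to a four-parameter equation.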

In experiment [1] the target is T2, (Homo sapiens, UniProt P08069).
T2 construct: human IGF1R kinase domain residues M954-C1367; made in house; host or cells: baculovirus expression (insect cells)
T2 sequence (P08069 954-1367): as above
The experiment is described as follows: IGF1R kinase assay (LCCA), IGF 0P. Type of experiment: biochemical. A digest of the protocol:
as §1

For `CCN(CC)CCNC(=O)CCc1ccc(Nc2nc(C)cc(Nc3ccccc3)n2)cc1` [Example 310], the IC50 (on IGF 3P (IGF1R kinase LCCA assay); in experiment [1] (IGF1R kinase LCCA assay)) was more than 5000 nM each time.

On to `Cc1c(Br)cccc1Nc1ncc(Br)c(Nc2cc(C3CC3)[nH]n2)n1` [Example 95], for which the IC50 (against IGF 3P (IGF1R kinase LCCA assay); in experiment [1] (IGF1R kinase LCCA assay)) was 50 to 500 nM in each case.

As to `NCCCCn1cc(-c2cccc(OCc3ccccc3)c2)c2c(N)ncnc21` [Example 344], the IC50 against IGF 3P (IGF1R kinase LCCA assay) was 500 to 5000 nM; in experiment [1] (IGF1R kinase LCCA assay), more than 5000 nM.

Turning to `c1cc(Nc2cc(C3CC3)n[nH]2)nc(Nc2ccc(N3CCOCC3)cc2)n1` [Example 224], the IC50 (against IGF 3P (IGF1R kinase LCCA assay); in experiment [1] (IGF1R kinase LCCA assay)) was 500 to 5000 nM in each case.

With `CN1CCN(C(=O)CCc2cccc(Nc3ncc(Br)c(Nc4cc(C5CC5)n[nH]4)n3)c2)CC1` [Example 100], the IC50 at IGF 3P (IGF1R kinase LCCA assay) was in the range of 50 to 500 nM; in experiment [1] (IGF1R kinase LCCA assay) it was 500 to 5000 nM.

On to `Cc1cc(Nc2cc(C3CC3)[nH]n2)nc(NCc2cc(-c3ccc(F)cc3F)no2)n1` [Example 622, N^4-(5-cyclopropyl-1H-pyrazol-3-yl)-N^2-{[3-(2,4-difluorophenyl)isoxazol-5-yl]methyl}-6-methylpyrimidine-2,4-diamine], for which the IC50 at IGF 3P is less than 50 nM; in experiment [1], 50 to 500 nM.
